Entries after “also recorded” stand apart in the source; their conditions may differ. Read-outs that look alike come from different tables or passages of the source.
How the values were obtained:
[1] = target: T1, 5-HT2A (h) (Homo sapiens, UniProt P28223); assay: 5-HT2A (h) agonist effect, IP1 HTRF functional assay; type: cell-based; conditions: for agonist efficacy at 5-HT2A, in words: EMAX relative to 5-HT
T1 construct: expressed in transfected cells; host or cells: HEK-293 cells

[2] = target: T2, Serotonin transporter (Rattus norvegicus, UniProt P31652); assay: Serotonin transporter uptake, rat brain synaptosomes; type: biochemical; conditions: for selectivity for blocking 5-HT reuptake relative to NE and DA, in words / selectivity for inhibiting SERT relative to DAT and NET: uptake inhibition
T2 construct: from tissue
T2 sequence (P31652 whole entry): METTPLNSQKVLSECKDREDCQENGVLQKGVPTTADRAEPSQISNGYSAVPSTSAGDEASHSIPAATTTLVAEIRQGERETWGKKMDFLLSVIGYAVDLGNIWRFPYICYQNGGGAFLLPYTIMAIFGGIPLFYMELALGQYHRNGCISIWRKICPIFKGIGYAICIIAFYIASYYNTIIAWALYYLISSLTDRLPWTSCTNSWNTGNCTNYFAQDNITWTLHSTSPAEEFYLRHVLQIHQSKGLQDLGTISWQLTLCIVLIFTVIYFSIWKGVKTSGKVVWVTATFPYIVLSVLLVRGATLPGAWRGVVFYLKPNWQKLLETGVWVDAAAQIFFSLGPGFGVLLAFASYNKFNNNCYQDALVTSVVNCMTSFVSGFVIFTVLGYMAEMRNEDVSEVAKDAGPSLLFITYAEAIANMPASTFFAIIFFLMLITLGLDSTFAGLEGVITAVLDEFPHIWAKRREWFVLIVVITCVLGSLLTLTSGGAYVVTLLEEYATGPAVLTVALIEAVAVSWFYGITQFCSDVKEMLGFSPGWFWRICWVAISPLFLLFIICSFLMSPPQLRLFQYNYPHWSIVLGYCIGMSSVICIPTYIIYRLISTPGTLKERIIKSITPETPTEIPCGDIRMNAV

[3] = target: T3, 5-HT transporter (h) (Homo sapiens, UniProt P31645); assay: 5-HT transporter (h) binding, [3H]imipramine; conditions: for selectivity for binding SERT over DAT and NET, in words: affinity screen at 10 μM
T3 construct: expressed in transfected cells; host or cells: CHO cells
T3 sequence (P31645 whole entry): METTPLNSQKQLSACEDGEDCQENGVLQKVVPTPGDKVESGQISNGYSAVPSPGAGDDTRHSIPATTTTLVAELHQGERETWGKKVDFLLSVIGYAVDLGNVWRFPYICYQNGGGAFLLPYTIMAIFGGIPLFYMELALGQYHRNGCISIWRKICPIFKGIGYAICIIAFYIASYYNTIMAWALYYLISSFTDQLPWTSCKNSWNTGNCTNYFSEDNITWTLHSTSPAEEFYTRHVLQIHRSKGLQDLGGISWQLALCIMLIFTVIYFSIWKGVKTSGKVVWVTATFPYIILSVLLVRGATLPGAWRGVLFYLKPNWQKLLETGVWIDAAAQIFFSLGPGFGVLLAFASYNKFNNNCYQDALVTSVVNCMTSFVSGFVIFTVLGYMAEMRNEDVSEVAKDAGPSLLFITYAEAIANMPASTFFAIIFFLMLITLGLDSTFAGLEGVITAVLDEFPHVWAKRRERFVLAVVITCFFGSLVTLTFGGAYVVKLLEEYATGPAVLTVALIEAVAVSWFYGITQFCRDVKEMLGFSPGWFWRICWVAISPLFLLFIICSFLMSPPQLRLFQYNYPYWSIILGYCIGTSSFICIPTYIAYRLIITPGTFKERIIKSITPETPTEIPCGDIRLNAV

[4] = target: Norepinephrine transporter (Homo sapiens, UniProt P23975); assay: Norepinephrine transporter uptake (h); type: cell-based
Sequence of Norepinephrine transporter (P23975 whole entry): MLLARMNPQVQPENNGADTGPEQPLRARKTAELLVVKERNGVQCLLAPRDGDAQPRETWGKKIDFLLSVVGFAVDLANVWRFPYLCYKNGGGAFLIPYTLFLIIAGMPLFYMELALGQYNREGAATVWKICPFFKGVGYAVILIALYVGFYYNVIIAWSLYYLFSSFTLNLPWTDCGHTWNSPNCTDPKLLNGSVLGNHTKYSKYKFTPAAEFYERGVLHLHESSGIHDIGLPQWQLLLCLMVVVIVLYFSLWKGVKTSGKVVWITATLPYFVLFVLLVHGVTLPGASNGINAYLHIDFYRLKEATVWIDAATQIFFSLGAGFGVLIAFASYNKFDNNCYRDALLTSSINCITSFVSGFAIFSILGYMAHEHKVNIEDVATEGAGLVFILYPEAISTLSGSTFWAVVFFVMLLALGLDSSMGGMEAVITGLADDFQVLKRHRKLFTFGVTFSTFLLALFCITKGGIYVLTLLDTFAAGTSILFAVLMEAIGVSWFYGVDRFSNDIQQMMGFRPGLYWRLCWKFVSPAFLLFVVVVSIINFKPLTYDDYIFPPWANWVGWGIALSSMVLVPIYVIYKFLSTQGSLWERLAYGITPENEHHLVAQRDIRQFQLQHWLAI

[5] = target: T4, 5-HT2C (h) (Homo sapiens, UniProt P28335); assay: 5-HT2C (h) agonist radioligand [125I](±)DOI binding; conditions: at 10 μM
T4 construct: expressed in transfected cells; host or cells: HEK-293 cells
T4 sequence (P28335 33-458): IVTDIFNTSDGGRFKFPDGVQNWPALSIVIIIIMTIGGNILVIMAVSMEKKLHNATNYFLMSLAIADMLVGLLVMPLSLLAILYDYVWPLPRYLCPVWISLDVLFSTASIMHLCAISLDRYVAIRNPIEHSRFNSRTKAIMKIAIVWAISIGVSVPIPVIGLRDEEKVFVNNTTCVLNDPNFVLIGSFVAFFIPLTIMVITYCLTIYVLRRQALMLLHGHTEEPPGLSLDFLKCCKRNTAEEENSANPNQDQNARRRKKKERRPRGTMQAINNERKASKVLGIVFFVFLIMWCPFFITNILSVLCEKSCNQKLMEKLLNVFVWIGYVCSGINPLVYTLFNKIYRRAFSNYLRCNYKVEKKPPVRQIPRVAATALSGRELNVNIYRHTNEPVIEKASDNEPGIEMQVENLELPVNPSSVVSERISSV
Method: Samples were then analyzed as described above.

[6] = target: T5, dopamine transporter (h) (Homo sapiens, UniProt Q01959); assay: dopamine transporter (h) binding, [3H]BTCP; conditions: at 10 μM; table calls these values “No Binding”
T5 construct: expressed in transfected cells; host or cells: CHO cells
T5 sequence (Q01959 whole entry): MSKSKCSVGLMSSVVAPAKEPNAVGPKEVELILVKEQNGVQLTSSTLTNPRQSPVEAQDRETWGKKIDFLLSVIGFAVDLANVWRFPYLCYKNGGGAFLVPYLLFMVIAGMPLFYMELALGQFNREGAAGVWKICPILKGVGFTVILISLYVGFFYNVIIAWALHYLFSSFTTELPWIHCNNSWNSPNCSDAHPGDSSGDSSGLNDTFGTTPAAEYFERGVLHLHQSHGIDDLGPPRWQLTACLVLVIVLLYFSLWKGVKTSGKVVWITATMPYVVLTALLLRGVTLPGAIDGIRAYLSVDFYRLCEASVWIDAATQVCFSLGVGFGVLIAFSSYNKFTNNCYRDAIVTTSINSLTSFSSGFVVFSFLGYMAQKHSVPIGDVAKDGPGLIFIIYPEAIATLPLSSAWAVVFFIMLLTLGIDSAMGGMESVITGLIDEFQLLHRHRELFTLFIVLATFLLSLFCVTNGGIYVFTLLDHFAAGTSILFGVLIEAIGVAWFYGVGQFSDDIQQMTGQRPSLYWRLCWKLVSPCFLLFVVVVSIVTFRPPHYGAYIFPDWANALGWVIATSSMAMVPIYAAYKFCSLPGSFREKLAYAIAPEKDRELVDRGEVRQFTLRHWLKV

[7] = target: T6, norepinephrine transporter (h) (Homo sapiens, UniProt P23975); assay: norepinephrine transporter (h) binding, [3H]nisoxetine; conditions: at 10 μM; table calls these values “No Binding”
T6 construct: expressed in transfected cells; host or cells: CHO cells
T6 sequence (P23975 whole entry): as the sequence (P23975 whole entry) above

[8] = target: T7, MAO-A (Homo sapiens, UniProt P21397); assay: Recombinant human MAO-A in vitro metabolism; type: in vitro ADME; conditions: for half-life at 1 µM: human, recombinant human MAO-A
T7 construct: purchased XenoTech (first series); Corning (second series) Corning 456283
T7 sequence (P21397 1-527): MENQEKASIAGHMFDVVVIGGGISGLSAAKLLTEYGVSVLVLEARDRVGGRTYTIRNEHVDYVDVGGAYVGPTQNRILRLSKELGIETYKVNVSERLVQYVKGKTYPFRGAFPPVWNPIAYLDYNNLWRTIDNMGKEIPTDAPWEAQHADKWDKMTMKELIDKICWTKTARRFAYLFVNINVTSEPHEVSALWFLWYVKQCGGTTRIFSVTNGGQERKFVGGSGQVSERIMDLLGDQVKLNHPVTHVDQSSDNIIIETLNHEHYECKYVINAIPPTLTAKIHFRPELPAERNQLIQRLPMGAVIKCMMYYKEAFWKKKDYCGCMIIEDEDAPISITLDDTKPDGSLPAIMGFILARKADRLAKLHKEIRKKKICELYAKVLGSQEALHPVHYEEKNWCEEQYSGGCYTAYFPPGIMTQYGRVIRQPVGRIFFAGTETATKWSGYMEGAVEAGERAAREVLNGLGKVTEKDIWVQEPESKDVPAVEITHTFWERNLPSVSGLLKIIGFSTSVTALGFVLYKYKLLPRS
Method: Recombinant human MAO-A. hrMAO-A and MAO control were purchased from XenoTech. The reaction mixture was prepared as described in Table 11. The test compound was added into the reaction mixture at a final concentration of 1 μM. The positive control kynuramine (25 μM) was run simultaneously with the test compound in a separate reaction. The reaction mixture (without test compounds or kynuramine) was equilibrated in a shaking water bath at 37° C. for 5 minutes. The reaction was initiated by the addition of the test compound or kynuramine, and the mixture was incubated in a shaking water bath at 37° C. Aliquots (150 μL) of the test compound reaction mixture were withdrawn at 0, 5, 10, 20, 30, 60, and for some assays at 120 minutes. Aliquots (150 μL) of the positive control reaction mixture were withdrawn at 0 and 30 minutes. Test compound and kynuramine samples were immediately combined with 150 μL of ice-cold 100% acetonitrile containing 0.1% formic acid and internal standard (0.2 μM metoprolol) to terminate the reaction. The samples were then mixed and centrifuged to precipitate proteins. All samples were assayed by LC-MS/MS. The peak area response ratio (PARR) of analyte to internal standard at each time point was compared to the PARR at time 0 to determine the percent remaining at each time point. Half-lives were calculated using GraphPad software, fitting to a single-phase exponential decay equation.
In a different series of reactions using human MAO-A and MAO-B, a 10 mM stock solution of the test compound was prepared in DMSO. From this stock solution, an intermediate stock solution of 1 mM was prepared by diluting the compound in DMSO and from this intermediate stock solution, a working solution of 0.30 mM was prepared by diluting the compound in ACN:Water (50:50) as cocktail of 2 compounds (30 μL each compound in 40 μL diluent for 100 μL). Following this, a master mix of 0.1 M potassium phosphate buffer and test compound mixture i.e., the non-deuterated and the deuterated analog, were prepared to achieve final drug concentration of 1 μM (0.2% DMSO) for the required number of reactions. The aforementioned master mix was pre-incubated at 37° C. for 5 min. To this master mix, MAO-A (final protein conc. 0.1 mg/mL; Corning Cat #456283; Lot #1173003) or MAO-B (final protein conc. 0.1 mg/mL; Corning Cat #456284; Lot #0318001) was added to initiate the reaction. The samples were then incubated at 37° C. for the desired time points. At each time point (0, 5, 15, 30, 45, 60), 40 μL of the samples were withdrawn and reactions were stopped using 200 μL chilled ACN containing 0.1% formic acid and internal standard Carbamazepine (10 ng/mL). The samples were centrifuged, and the supernatant was analyzed by LC-MS/MS. The percent compound remaining at each time point was calculated with respect to that of the 0 min sample. The data were then analyzed to calculate half-life and intrinsic clearance (CLint). Blank samples were prepared using DMSO (without the test compound).

[9] = target: T1, 5-HT2A (h); assay: 5-HT2A (h) agonist radioligand [125I](±)DOI binding; conditions: at 10 μM
[10] = human recombinant MAO-A, test compound 1 μM, read-out: MAO-A t1/2

T1 sequence (P28223 whole entry): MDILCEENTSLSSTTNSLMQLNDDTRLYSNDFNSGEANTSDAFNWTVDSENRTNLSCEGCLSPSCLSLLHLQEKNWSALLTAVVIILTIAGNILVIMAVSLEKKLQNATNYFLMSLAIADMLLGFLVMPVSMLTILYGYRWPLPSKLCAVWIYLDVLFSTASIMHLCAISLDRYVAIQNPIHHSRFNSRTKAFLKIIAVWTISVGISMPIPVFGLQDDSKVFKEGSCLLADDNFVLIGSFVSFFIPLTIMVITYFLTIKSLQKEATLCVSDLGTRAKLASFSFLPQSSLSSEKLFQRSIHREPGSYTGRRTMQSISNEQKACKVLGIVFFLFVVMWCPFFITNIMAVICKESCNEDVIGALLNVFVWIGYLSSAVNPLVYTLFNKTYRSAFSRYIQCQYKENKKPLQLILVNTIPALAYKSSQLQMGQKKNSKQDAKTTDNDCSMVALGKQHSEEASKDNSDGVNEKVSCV

NCCc1ccc2c(c1)OCS2 [II-14, 2-(benzo[d][1,3]oxathiol-6-yl)ethan-1-amine]
EC50 [1]: 3 µM | Emax at 100 µM ([1]; at 100 μM, relative to 5-HT, read-out: Function 5-HT2A EMAX): 87.3% | Function 5-HT2A (IP-1, efficacy relative to 5-HT), agonist type ([1]; tested at 1, 3, 10, 100 μM): Nearly full agonist - | agonist efficacy at 5-HT2A, in words ([1]; tested at 1, 3, 10, 100 μM): nearly full or full agonist; also recorded: full agonists | IC50 [2]: ~0.5 µM | Function SERT, inhibition of SERT ([2]; from 3 to 100 μM): 98.5-107.9%, | Function SERT (blocking reuptake of 5-HT), efficacy in words ([2]; tested at 1, 3, 10, 100 μM): Full efficacy, | efficacy for blocking 5-HT uptake through SERT, in words ([2]; tested at 1, 3, 10, 100 μM): full efficacy | selectivity for blocking 5-HT reuptake relative to NE and DA, in words [2]: selectivity (higher potency) for blocking 5-HT reuptake relative to NE and DA | selectivity for inhibiting SERT relative to DAT and NET [2]: ~5 fold | selectivity for binding SERT over DAT and NET, in words [3]: substantial selectivity for binding SERT over DAT and NET | Binding SERT (antagonist radioligand), % competition ([3]; at 10 μM): 54.7% competition | IC50 [4]: ~5 µM | inhibition at 100 µM ([4]; at 100 μM, read-out: Function NET, inhibition of NET): 92.9% | Function NET (blocking reuptake of NE), efficacy in words ([4]; tested at 1, 10, 100 μM): Near full efficacy, | efficacy for blocking NE uptake through NET, in words ([4]; tested at 1, 10, 100 μM): full efficacy | Binding 5-HT2C (agonist radioligand), % competition [5]: 94.4% competition | Binding DAT (antagonist radioligand), % competition [6]: 26% competition | Binding NET (antagonist radioligand), % competition [7]: 40.5% competition | half-life at 1 µM ([8]; 1 μM test compound, read-out: half-life, MAO-A metabolism): ≤ 8 min | half-life at 1 µM [8, 10]: 4.09 min | Binding 5-HT2A (agonist radioligand), % competition [9]: 93.9% competition

CC(N)Cc1ccc2c(c1)OCS2 (stereo not drawn) [II-16, 1-(benzo[d][1,3]oxathiol-6-yl)propan-2-amine]
agonist efficacy at 5-HT2A, in words ([1]; tested at 1, 3, 10, 100 μM): nearly full or full agonist; also recorded: full agonists | efficacy for blocking 5-HT uptake through SERT, in words ([2]; tested at 1, 3, 10, 100 μM): full efficacy | selectivity for blocking 5-HT reuptake relative to NE and DA, in words [2]: selectivity (higher potency) for blocking 5-HT reuptake relative to NE and DA | selectivity for inhibiting SERT relative to DAT and NET [2]: ~5 fold | selectivity for binding SERT over DAT and NET, in words [3]: substantial selectivity for binding SERT over DAT and NET | efficacy for blocking NE uptake through NET, in words ([4]; tested at 1, 10, 100 μM): full efficacy | half-life at 1 µM [8, 10]: > 120 min | stability in the presence of MAO-A ([8]; result in words): stable

Source: US20250145566A1, “PHENETHYLAMINE DERIVATIVES, COMPOSITIONS, AND METHODS OF USE” (Cybin IRL Limited, priority 2022, published 2025)
